Results from patent publication EP0930067A2, “MMP inhibitors for the treatment of ocular angiogenesis” (Pfizer Products Inc., priority 1997, dated 1999).

Test system: angiogenesis
Assay: Inhibition of angiogenesis: in vivo rat model, pellet with angiogenic material (VEGF) and MMP inhibitor, corneal neovascularization scored after one week
Details: pellet implant
Procedure: Inhibition of Angiogenesis
The activity of MMP inhibitors, preferably MMP-2 or MMP-9 inhibitors, for inhibiting angiogenesis can be determined according to the following in vivo rat model. A 10µg pellet containing an angiogenic material, such as vascular endothelial growth factor (VEGF) and a matrix metalloproteinase inhibitor or placebo, is implanted intraorbitally. After one week the eyes are removed and the degree of inhibition of angiogenesis is determined qualitatively. Inhibitors with IC50's of less than 10nm reduced angiogenesis. […]

Compound: CC(C)(NS(=O)(=O)c1ccc(Oc2ccc(F)cc2)cc1)C(=O)NO [2-[4-(4-Fluoro-phenoxy)-benzenesulfonylamino]-N-hydroxy-2-methyl-propionamide]
- % Response (10ng + VEGF): 20%
- Corneal Neovascularization (#Positive Response/#Response) (10ng + VEGF): 1/5
- % Response (25ng + VEGF): 17%
- Corneal Neovascularization (#Positive Response/#Response) (25ng + VEGF): 1/6
- % Response (50ng + VEGF): 0%
- Corneal Neovascularization (#Positive Response/#Response) (50ng + VEGF): 0/5
- % Response (100ng + VEGF): 0%
- Corneal Neovascularization (#Positive Response/#Response) (100ng + VEGF): 0/5

Compound: O=C(O)CCN(C1(C(=O)NO)CCCC1)S(=O)(=O)c1ccc(Oc2ccc(F)cc2)cc1 [3-[[4-(4-Fluoro-phenoxy)-benzenesulfonyl]-(1-hydroxycarbamoyl-cyclopentyl)-amino]-propionic acid]
- % Response (10ng + VEGF): 25%
- Corneal Neovascularization (#Positive Response/#Response) (10ng + VEGF): 1/4
- % Response (25ng + VEGF): 17%
- Corneal Neovascularization (#Positive Response/#Response) (25ng + VEGF): 1/6
- % Response (50ng + VEGF): 0%
- Corneal Neovascularization (#Positive Response/#Response) (50ng + VEGF): 0/5
- % Response (100ng + VEGF): 0%
- Corneal Neovascularization (#Positive Response/#Response) (100ng + VEGF): 0/5

Compound: O=C(NO)C1C2CCC(O2)C1S(=O)(=O)c1ccc(Oc2ccccc2)cc1 (stereo not drawn) [3-(4-Phenoxy-benzenesulfonyl)-7-oxa-bicyclo[2.2.1]heptane-2-carboxylic acid hydroxyamide]
- % Response (10ng + VEGF): 25%
- Corneal Neovascularization (#Positive Response/#Response) (10ng + VEGF): 4/4
- % Response (25ng + VEGF): 60%
- Corneal Neovascularization (#Positive Response/#Response) (25ng + VEGF): 3/5
- % Response (50ng + VEGF): 40%
- Corneal Neovascularization (#Positive Response/#Response) (50ng + VEGF): 2/5
- % Response (100ng + VEGF): 20%
- Corneal Neovascularization (#Positive Response/#Response) (100ng + VEGF): 1/5
